Data: patent US20040010001A1, “Methods and compositions for modulating cell proliferation and cell death” (priority 1999, published 2004)
Like-named read-outs stand apart in the source and are kept apart here.

Experiments:
[1] = test system: Human prostate PC3 tumor cells; test: Drug treatment and extracellular bFGF (ELISA), LDH release, cell number; format: cell-based; conditions: for Extracellular LDH, % of control / Extracellular bFGF, % of control / Extracellular concentration bFGF / bFGF:LDH ratio: 72 hours
Procedure: The experimental conditions are described briefly below. […] The remaining cell number at the end of treatment was counted using a Coulter counter. The extracellular bFGF concentration was measured using ELISA. The release of lactate dehydrogenase (LDH) into the extracellular culture medium is indicative of cell death and gives a measure of the release of cellular content into the culture medium. If the increase in extracellular bFGF level is due to the release of bFGF upon cell death and lysis, the increase in bFGF will be accompanied by an increase in LDH in the same extent. This would result in an higher bFGF level and a constant bFGF-to-LDH ratio. On the other hand, an increase in extracellular bFGF due to an increase in bFGF production and release of bFGF from cells by processes other than cell lysis will result in an higher bFGF level and an higher bFGF-to-LDH ratio.

[2] = test system: human PC3-LN lung metastases
Procedure: Animal care was in accordance with the guidelines at the Ohio State University. Several human tumor models were used, including (a) lung metastases derived from intravenous injection of human PC3-LN tumor cells, (b) lung tumors derived from direct injection of human PC3 cells in lungs, and (c) subcutaneously implanted PC3 tumors. Four studies were performed. In all studies, drug treatment was administered intravenously via a tail vein, after the tumor was established. The first and second studies used the intravenous PC3-LN lung metastasis model. Briefly, human PC3-LN cells ([…] in 0.1 ml physiologic saline) were injected intravenously, via a tail vein, into immunodeficient mice. […] Treatment was given twice weekly for three weeks. […] Three days after completion of drug treatments, animals were euthanized and their lungs removed, fixed in Bouin's solution to visualize tumor nodules, and then processed for histologic evaluation. […] The lung surface area (counted as number of pixel) occupied by the tumor was calculated as a fraction of the total lung area, using Adobe PhotoShop. The number of tumor cells in residual tumors and the fraction of apoptotic cells in each tumor were also determined microscopically. Because apoptotic cells disappear over time, a second measure of the extent of apoptosis was the density of non-apoptotic cells in the residual tumors. This was determined by counting the number of non-apoptotic tumor cells in randomly selected microscopic fields at 400× magnification. […] In the case of combination therapy where fewer than 5 tumor nodules remained per animal, all residual cells (between 20 to 600 cells per animal) were counted.

[3] = test system: normal rat intestinal epithelial cells (IEC6); test: Protection of normal intestinal epithelial cells by aFGF/bFGF, BrdU incorporation; format: cell-based; conditions: drug 24 hours
Procedure: These cells were derived from normal, noncancerous intestinal epithelium. […] Drug effect was measured as the reduction of bromodeoxyuridine incorporation in treated cells relative to untreated controls.

[4] = test system: rat lymph node metastases, histocultures; test: Drug effect in histocultures of rat lymph node metastases (inhibition of 3H-thymidine incorporation); format: cell-based
subcutaneous PC3 tumors = conditions: suramin 10 mg/kg, doxorubicin 5 mg/kg, twice weekly for 3 weeks
Procedure: Briefly, PC3 cells (5×10^6 cells) were injected subcutaneously.

[5] = test system: human prostate PC3-LN tumor cells; test: cells; format: cell-based; conditions: read-out: IC50 in the monolayer cultures of PC3-LN cells
rat MAT-LyLu tumor cells = test: Reversal of CM-induced resistance by FGF antibodies and suramin, BrdU incorporation; format: cell-based; conditions: Rattus norvegicus, read-out: IC50 in the presence of 1.6 micromolar suramin; CM of lung metastases histocultures; unchanged in the absence or presence of 5 microgram/ml anti-bFGF antibody
Procedure: The source of CM was lung histocultures for the aFGF experiment, and early monolayer lung cultures for the bFGF experiment. The study used four controls: no CM (left solid curves, open circles); addition of 5 μg/ml aFGF or bFGF antibody but no CM (inverted filled triangle, overlaps with the left control curve); addition of CM but no antibody (right solid curves, open square); addition of CM plus a nonspecific antibody, IgG (5 μg/ml, filled diamond, overlaps with the right CM-control curve). Dotted curves, from right to left, addition of aFGF or bFGF antibody concentrations of 0.05 μg/ml (filled circle); 0.1 μg/ml (filled square); 1 or 0.5 μg/ml (filled triangle); and 5 μg/ml (open inverted triangle). […] Similar results were also found for human PC3 prostate tumor cells.
The first study used specific inhibitors of extracellular aFGF and bFGF, i.e., monoclonal antibodies (FIG. 2A). […] In the presence of the active CM, the bFGF antibody produced a concentration-dependent reversal of the CM-induced chemoresistance, with complete reversal by 5 microgram/ml antibody, whereas a nonspecific antibody (i.e., non-immune rabbit IgG) had no effect. For aFGF, the antibody treatment partially reversed the CM-induced resistance; the maximum reversal was about 60% that was obtained with 1 microgram/ml antibody with no significant additional reversal at a 5-fold higher concentration. The second study evaluated the effect of removing aFGF and/or bFGF from the active CM by immunoprecipitation. Removal of bFGF abolished the resistance, whereas removal of aFGF only partially reversed the CM effect. These two studies indicate that both aFGF and bFGF were involved in the resistance, but had different roles.
This study was performed using the rat MAT-LyLu tumor cells as the model tumor cells and using doxorubicin and paclitaxel as the model anticancer agents. The CM used to induce resistance was collected from histocultures of lung metastases (see Table 1). Five microgram/ml anti-bFGF antibody was added.

[6] = test system: rat lung metastases, histocultures; test: Drug effect in histocultures of rat lung metastases (inhibition of 3H-thymidine incorporation); format: cell-based
[7] = doxorubicin study: suramin 10 mg/kg, doxorubicin 5 mg/kg, intravenous twice weekly for three weeks
[8] = suramin 10 mg/kg, doxorubicin 5 mg/kg, intravenous twice weekly for three weeks
[9] = IEC-6, absence of aFGF and bFGF
[10] = IEC-6, pretreated with 1 ng/ml aFGF and 3 ng/ml bFGF for 96 hours
[11] = paclitaxel study: suramin 10 mg/kg, paclitaxel 15 mg/kg, intravenous twice weekly for three weeks
[12] = 24 h, read-out: Concentration producing 50% inhibition (data shown are the concentrations that produced 30% inhibition)

Structure (SMILES): COc1cccc2c1C(=O)c1c(O)c3c(c(O)c1C2=O)C[C@@](O)(C(=O)CO)C[C@@H]3O[C@H]1C[C@H](N)[C@H](O)[C@H](C)O1 [Doxorubicin]
- Remaining cell number at 72 hours (% of control) ([1]; drug concentration 20 NM): 84%
- Remaining cell number at 72 hours × 10^6 ([1]; drug concentration 20 NM): 2.1 × 10^6
- Extracellular LDH, % of control ([1]; drug concentration 20 NM): 119 % of control
- Extracellular bFGF, % of control ([1]; drug concentration 20 NM): 124 % of control
- Extracellular concentration bFGF ([1]; drug concentration 20 NM): 5.87 pg/mL
- Remaining cell number at 72 hours (% of control) ([1]; drug concentration 60 NM): 48%
- Remaining cell number at 72 hours × 10^6 ([1]; drug concentration 60 NM): 1.2 × 10^6
- Extracellular LDH, % of control ([1]; drug concentration 60 NM): 173 % of control
- Extracellular bFGF, % of control ([1]; drug concentration 60 NM): 239 % of control
- Extracellular concentration bFGF ([1]; drug concentration 60 NM): 11.3 pg/mL
- Remaining cell number at 72 hours (% of control) ([1]; drug concentration 200 NM): 16%
- Remaining cell number at 72 hours × 10^6 ([1]; drug concentration 200 NM): 0.4 × 10^6
- Extracellular LDH, % of control ([1]; drug concentration 200 NM): 316 % of control
- Extracellular bFGF, % of control ([1]; drug concentration 200 NM): 461 % of control
- Extracellular concentration bFGF ([1]; drug concentration 200 NM): 21.8 pg/mL
- reduction of tumor size ([2]; doxorubicin 5 mg/kg alone): ~80%
- % Apoptotic cells per tumor [2, 7]: 29 ± 16 %
- Density of nonapoptotic cells in residual tumors, cells/field [2, 7]: 77 ± 17 cells/field
- % Lung surface area occupied by tumor [2, 8]: 2 ± 1 %
- % Tumor-free animals [2, 8]: 0%
- IC50 [3, 9]: 292 nM
- IC50 [3, 10]: 544 nM
- IC50 ([4]; Histocultures, Lymph node, 96 hours, read-out: Concentration producing 50% inhibition): 165 ± 66 nM
- effect on tumor growth (subcutaneous PC3 tumors): reduced the tumor growth but did not cause tumor regression
- IC50 [5]: 17 nM
- IC50 (rat MAT-LyLu tumor cells): 13 nM

Structure (SMILES): CC(=O)O[C@H]1C(=O)[C@@]2(C)[C@H]([C@H](OC(=O)c3ccccc3)[C@]3(O)C[C@H](OC(=O)[C@H](O)[C@@H](NC(=O)c4ccccc4)c4ccccc4)C(C)=C1C3(C)C)[C@]1(OC(C)=O)CO[C@@H]1C[C@@H]2O [Paclitaxel]
- Remaining cell number at 72 hours (% of control) ([1]; drug concentration 2.5 NM): 87%
- Remaining cell number at 72 hours × 10^6 ([1]; drug concentration 2.5 NM): 2.0 × 10^6
- Extracellular bFGF, % of control ([1]; drug concentration 2.5 NM): 347 % of control
- Extracellular concentration bFGF ([1]; drug concentration 2.5 NM): 19.5 pg/mL
- Remaining cell number at 72 hours (% of control) ([1]; drug concentration 5 NM): 43%
- Remaining cell number at 72 hours × 10^6 ([1]; drug concentration 5 NM): 1.0 × 10^6
- Extracellular LDH, % of control ([1]; drug concentration 5 NM): 437 % of control
- Extracellular bFGF, % of control ([1]; drug concentration 5 NM): 1358 % of control
- Extracellular concentration bFGF ([1]; drug concentration 5 NM): 76.3 pg/mL
- Remaining cell number at 72 hours (% of control) ([1]; drug concentration 10 NM): 22%
- Remaining cell number at 72 hours × 10^6 ([1]; drug concentration 10 NM): 0.5 × 10^6
- Extracellular LDH, % of control ([1]; drug concentration 10 NM): 705 % of control
- Extracellular bFGF, % of control ([1]; drug concentration 10 NM): 2917 % of control
- Extracellular concentration bFGF ([1]; drug concentration 10 NM): 164 pg/mL
- increase of the fraction of apoptotic cells ([2]; paclitaxel 15 mg/kg alone): 13 fold
- reduction of the density of nonapoptotic cells ([2]; paclitaxel 15 mg/kg alone): ~70%
- % Apoptotic cells per tumor [2, 11]: 53 ± 24 %
- Density of nonapoptotic cells in residual tumors, cells/field [2, 11]: 49 ± 35 cells/field
- IC50 [3, 9]: 491 nM
- IC50 [3, 10]: 1450 nM
- IC30 (concentration producing 30% inhibition) [4, 12]: > 227 nM
- IC30 [6, 12]: > 1800 nM
- IC50 [5]: 8 nM
- IC50 (rat MAT-LyLu tumor cells): 14 nM

Structure (SMILES): O=c1[nH]cc(F)c(=O)[nH]1 [5-Fluorouracil]
- Remaining cell number at 72 hours (% of control) ([1]; drug concentration 2000 NM): 88%
- Remaining cell number at 72 hours × 10^6 ([1]; drug concentration 2000 NM): 2.2 × 10^6
- Extracellular LDH, % of control ([1]; drug concentration 2000 NM): 121 % of control
- Extracellular bFGF, % of control ([1]; drug concentration 2000 NM): 139 % of control
- Extracellular concentration bFGF ([1]; drug concentration 2000 NM): 8.37 pg/mL
- bFGF:LDH ratio ([1]; drug concentration 2000 NM): 1.15
- Remaining cell number at 72 hours (% of control) ([1]; drug concentration 6000 NM): 56%
- Remaining cell number at 72 hours × 10^6 ([1]; drug concentration 6000 NM): 1.4 × 10^6
- Extracellular LDH, % of control ([1]; drug concentration 6000 NM): 158 % of control
- Extracellular bFGF, % of control ([1]; drug concentration 6000 NM): 189 % of control
- Extracellular concentration bFGF ([1]; drug concentration 6000 NM): 11.35 pg/mL
- bFGF:LDH ratio ([1]; drug concentration 6000 NM): 1.20
- Remaining cell number at 72 hours (% of control) ([1]; drug concentration 20000 NM): 24%
- Remaining cell number at 72 hours × 10^6 ([1]; drug concentration 20000 NM): 0.6 × 10^6
- Extracellular LDH, % of control ([1]; drug concentration 20000 NM): 202 % of control
- Extracellular bFGF, % of control ([1]; drug concentration 20000 NM): 296 % of control
- Extracellular concentration bFGF ([1]; drug concentration 20000 NM): 17.8 pg/mL
- bFGF:LDH ratio ([1]; drug concentration 20000 NM): 1.46
- IC50 ([6]; Histocultures, Lung, 96 hours, read-out: Concentration producing 50% inhibition): 122000 ± 25000 nM
